# Measurements published in US20150359847A1, “METHOD AND COMPOSITION FOR CONFERRING NEUROPROTECTION” (BLOOD SYSTEMS RESEARCH INSTITUTE, priority 2014, published 2015).
# T1: MMP-2 (Homo sapiens, UniProt P08253)
# T1 sequence (P08253 110-660): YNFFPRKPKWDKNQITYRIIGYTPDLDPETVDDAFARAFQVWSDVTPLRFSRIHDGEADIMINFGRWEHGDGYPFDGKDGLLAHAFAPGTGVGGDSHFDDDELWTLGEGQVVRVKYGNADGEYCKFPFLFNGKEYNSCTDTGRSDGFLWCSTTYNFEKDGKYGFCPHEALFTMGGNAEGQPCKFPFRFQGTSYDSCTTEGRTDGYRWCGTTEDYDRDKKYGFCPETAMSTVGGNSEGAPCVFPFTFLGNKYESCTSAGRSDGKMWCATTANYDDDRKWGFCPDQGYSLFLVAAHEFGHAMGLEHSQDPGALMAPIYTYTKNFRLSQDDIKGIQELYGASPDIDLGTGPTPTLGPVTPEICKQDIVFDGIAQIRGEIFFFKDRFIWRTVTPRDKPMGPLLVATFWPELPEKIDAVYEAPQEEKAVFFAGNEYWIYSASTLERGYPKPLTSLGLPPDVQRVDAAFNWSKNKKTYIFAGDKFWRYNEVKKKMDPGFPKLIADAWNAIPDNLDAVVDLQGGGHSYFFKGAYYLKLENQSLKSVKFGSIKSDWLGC
# B1: shRNA against mTOR: shRNA sequence mTOR3071 (SEQ ID NO: 1) cloned into plasmid pENN.AAV.U6.ShRLuc.CMV.eGFP.SV40 (nucleic acid)
# guide: GGAUCCGAGCCACATCCGTCCCTACTTCAAGAGAGTAGGGACGGATGTGGCTCTTTTTGAAUCC
# B2: infra-red tagged TIMP3: Infra-red tagged version of recombinant TIMP3, obtained from Amgen Inc. (protein, UniProt P35625 24-211, looked up)
# Metalloproteinase inhibitor 3: CTCSPSHPQDAFCNSDIVIRAKVVGKKLVKEGPFGTLVYTIKQMKMYRGFTKMPHVQYIHTEASESLCGLKLEVNKYQYLLTGRVYDGKMYTGLCNFVERWDQLTLSQRKGLNYRYHLGCNCKIKSCYYLPCFVTSKNECLWTDMLSNFGYPGYQSKHYACIRQKGGYCSWYRGWAPPDKSIINATDP
# modifications: infra-red dye label
# Experiments:
# [1] = test system: phospho-AKT(Ser473) in SH-SY5Y cells; test: Akt (Ser473) phosphorylation in differentiated SH-SY5Y cells (antibody array, western blot, Phosflow); assay type: cell-based, human
# Method: SH-SY5Y cells were obtained from ATCC (Cat# CRL-2266, Manassas, Va.) and were cultured in DMEM and 10% FBS up to passage 10. For differentiation of SH-SY5Y cells into a neuronal phenotype, cells were first plated in DMEEM+10% FBS for 24 hrs before exchanging media in DMEM+1% FBS 10 μM retinoic acid. Differentiation was performed for 3 days before experimentation. Hippocampal neurons were prepared according to the protocol by Beaudoin et al. (Nature Protocols 2012; 7(9):1741-1754) with minor modifications. In brief, after trypsin digestion of hippocampi isolated from P1 mouse pups single cell suspensions was created by trituration and plated onto Biocoat™ poly-D-lysine coated 12-well plates (Cat#354470, BD Biosciences, San Jose, Calif.). 2 pups were used per well and cell suspensions were incubated for 10 minutes per well for a total of 6 wells. The serial incubation allowed for variation in cell densities applicable to different experiments but also contributed to the reduction in non-neuronal cells. Typically wells 1-2 were pooled for western blotting and wells 4-5 were used for imaging following treatments. After the initial plating cells were incubated for 2 hrs before media was completely exchanged for maintenance media that was supplemented with 1 μM of the anti-mitotic cytosine arabinoside in order to further reduce non-neuronal cells. For western blot, cells were cultured for 7 days before experimentation. Half of maintenance media was exchanged on day 2 and day 5. For morphology experiments, treatments were initiated upon the introduction of maintenance media and was renewed 48 hrs later for a further 24 hrs of treatment. Experiments were terminated by fixation for 20 minutes with 4% paraformaldehyde after which cells were stored at 4° C. in PBS prior to staining protocols.
# (§1) Pathscan Antibody™ array kits were purchased from Cell Signaling Technologies (Danvers, Mass.). PathScan® RTK signaling antibody array kit (Fluorescent Readout, Cat#7949) and PathScan™ Akt signaling antibody array kit (Fluorescent Readout, Cat#9700) were performed as per manufacturer's instructions. Imaging was performed on a LI-COR Odyssey™ infrared scanner and pixel densities measured by in house LI-COR Image™ suite software.
# After experimentation, SH-SY5Y cells were detached from culture ware via trypsin digestion and rapidly mixed with an equal volume of BD cytofix fixation buffer (Cat#554655. BD Biosciences, San Jose, Calif.). After wash steps with PBS cells were permeabilized with BD phosflow Perm Buffer III (Cat#558050. BD Biosciences, San Jose, Calif.) and incubated on ice for 30 mins. After washing in BD stain buffer (Cat#554657. BD Biosciences, San Jose, Calif.) cells were counted and 1×10^6 cells were used antibody incubation. Negative IgG compensation control was obtained using ABC control beads (Cat# A10344. Life Technologies, Grand Island, N.Y.). Antibody incubations were conducted for 30 mins at RT in the dark. Following wash steps the volume was adjusted to 500 μl and results obtained using and LSR II flow cytometer and analyzed using Flowjo™ cytometric analytical software version 8.8.7.
# Cell lysates for western blotting were prepared with RIPA buffer (Cat#89900. Thermofisher Scientific, Rockford, Ill.) supplemented with phosphatase inhibitor cocktail 2 (Cat# P5726. Sigma, St Louis, Mo.), phosphatase inhibitor cocktail 3 (Cat# P0044. Sigma, St Louis, Mo.) and complete protease inhibitor (Cat#1862209. Thermofisher Scientific, Rockford, Ill.). Complete homogenization was ensured by brief sonication using a Branson Sonifier 150, (Branson Ultrasonics Corporation, Danbury, Conn.). Protein content was quantified with a Pierce BCA protein assay kit per manufacturer's instructions (Cat#23225. Thermofisher Scientific, Rockford, Ill.).
# (§2) Lysates was analyzed in conjuncture with the LI-COR Odyssey™ infra-red imaging system. […]
# [2] = target: MMP-2 (UniProt P08253); test: cell-based or functional assay
# [3] = target: T2, MMP-9 (Homo sapiens, UniProt P14780); test: cell-based or functional assay
# Target sequence in this assay (P14780 107-707 limits assumed): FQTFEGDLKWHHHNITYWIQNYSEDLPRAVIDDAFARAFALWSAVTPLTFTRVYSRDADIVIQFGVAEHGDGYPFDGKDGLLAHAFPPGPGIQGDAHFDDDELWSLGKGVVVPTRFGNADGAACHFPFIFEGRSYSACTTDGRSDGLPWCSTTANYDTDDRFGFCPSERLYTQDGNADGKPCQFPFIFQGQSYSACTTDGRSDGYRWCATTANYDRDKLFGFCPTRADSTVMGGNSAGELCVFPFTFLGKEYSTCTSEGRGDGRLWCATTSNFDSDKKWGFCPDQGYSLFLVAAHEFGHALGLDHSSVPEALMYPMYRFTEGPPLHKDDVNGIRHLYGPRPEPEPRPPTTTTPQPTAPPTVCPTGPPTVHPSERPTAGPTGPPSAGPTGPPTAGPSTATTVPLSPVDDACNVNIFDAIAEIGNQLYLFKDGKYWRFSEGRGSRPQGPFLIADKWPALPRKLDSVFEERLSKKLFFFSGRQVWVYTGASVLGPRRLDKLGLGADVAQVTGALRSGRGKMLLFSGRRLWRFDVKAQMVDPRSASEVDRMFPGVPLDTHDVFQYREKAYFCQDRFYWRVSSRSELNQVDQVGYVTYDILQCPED
# [4] = test system: S6 Ribosomal Protein (S235/236) in SH-SY5Y cells; test: S6 Ribosomal Protein (S235/236) phosphorylation in SH-SY5Y cells; assay type: cell-based, human; conditions: 10 μM GM6001, 15 minutes
# Method: (§3) SH-SY5Y cells were obtained from ATCC (Cat# CRL-2266, Manassas, Va.) and were cultured in DMEM and 10% FBS up to passage 10. For differentiation of SH-SY5Y cells into a neuronal phenotype, cells were first plated in DMEEM+10% FBS for 24 hrs before exchanging media in DMEM+1% FBS 10 μM retinoic acid. Differentiation was performed for 3 days before experimentation. Hippocampal neurons were prepared according to the protocol by Beaudoin et al. (Nature Protocols 2012; 7(9):1741-1754) with minor modifications. In brief, after trypsin digestion of hippocampi isolated from P1 mouse pups single cell suspensions was created by trituration and plated onto Biocoat™ poly-D-lysine coated 12-well plates (Cat#354470, BD Biosciences, San Jose, Calif.). 2 pups were used per well and cell suspensions were incubated for 10 minutes per well for a total of 6 wells. The serial incubation allowed for variation in cell densities applicable to different experiments but also contributed to the reduction in non-neuronal cells. […]
# as §1
# Cell lysates for western blotting were prepared with RIPA buffer (Cat#89900. Thermofisher Scientific, Rockford, Ill.) supplemented with phosphatase inhibitor cocktail 2 (Cat# P5726. Sigma, St Louis, Mo.), phosphatase inhibitor cocktail 3 (Cat# P0044. Sigma, St Louis, Mo.) and complete protease inhibitor (Cat#1862209. Thermofisher Scientific, Rockford, Ill.). […] Protein content was quantified with a Pierce BCA protein assay kit per manufacturer's instructions (Cat#23225. Thermofisher Scientific, Rockford, Ill.).
# as §2
# [5] = target: T1, MMP-2; test: SensoLyte Fluorimetric MMP-2 Activity Assay; assay type: biochemical; conditions: GM6001
# Source text: (§4) SensoLyte Fluorimetric MMP-2 Activity Assay Kit™ (Cat#71151) and SensoLyte Fluorimetric MMP-9 Activity Assay Kit™ (Cat#71155) were purchased from AnaSpec (Fremont, Calif.) and performed per manufacturer's instructions.
# [6] = target: T2, MMP-9; test: SensoLyte Fluorimetric MMP-9 Activity Assay; assay type: biochemical; conditions: GM6001
# Source text: as §4
# Target sequence in this assay (P14780 94-707, species assumed): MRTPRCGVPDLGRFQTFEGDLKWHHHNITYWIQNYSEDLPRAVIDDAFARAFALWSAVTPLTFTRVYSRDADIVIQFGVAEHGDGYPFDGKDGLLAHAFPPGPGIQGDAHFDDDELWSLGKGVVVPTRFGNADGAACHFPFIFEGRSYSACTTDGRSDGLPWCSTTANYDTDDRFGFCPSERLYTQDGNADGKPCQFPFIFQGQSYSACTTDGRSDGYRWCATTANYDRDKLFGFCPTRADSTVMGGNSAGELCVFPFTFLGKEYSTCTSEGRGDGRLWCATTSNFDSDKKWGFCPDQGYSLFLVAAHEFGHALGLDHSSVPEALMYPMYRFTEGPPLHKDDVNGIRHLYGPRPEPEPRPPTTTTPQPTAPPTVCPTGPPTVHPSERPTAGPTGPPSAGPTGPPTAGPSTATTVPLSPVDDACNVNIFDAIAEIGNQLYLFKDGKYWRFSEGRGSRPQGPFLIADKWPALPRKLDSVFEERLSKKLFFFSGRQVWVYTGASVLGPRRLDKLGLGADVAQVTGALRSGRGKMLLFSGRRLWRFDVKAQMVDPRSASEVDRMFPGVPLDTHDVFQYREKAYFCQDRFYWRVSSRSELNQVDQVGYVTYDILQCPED
# [7] = test system: hippocampal neurons; test: Sholl analysis of isolated hippocampal neurons; assay type: cell-based, mouse; conditions: shRNA vs scrambled sequence (SCR); 7 days post-transfection
# Method: as §3
# Sholl analysis on processed images of isolated hippocampal neurons was conducted using the Fiji derivation of Image J. (Hypertext Transfer Protocol://Fiji.sc.Fiji). […] After neurites had been traced the images were rendered as an analyzed skeleton and Sholl analysis was run on the image from the Analyze menu option.
# [8] = test system: mTOR; test: Real-time PCR of mTOR message in transfected hippocampal neurons; assay type: cell-based, mouse; conditions: 7 days post-transfection; during TIMP3 treatment; relative to actin
# Method: Primary hippocampal neuron suspensions were transfected post-trituration and prior to plating. Neurons were ‘Nucleofected’ using a 4D-Nucleofector™ System (Lonza, Walkersville, Md.) in conjunction with a P3 Primary Cell 4D-Nucleofector® X Kit. In brief, 5×10^5 cells were nucleofected with 1.5 μg DNA resuspended in 100 μl of P3 solution after which cells were plated and cultured per normal protocol.
# Plasmid vector pENN.AAV.U6.ShRLuc.CMV.eGFP.SV40 was provided by the Penn vector core, University of Pennsylvania, (Philadelphia, Pa.). mTOR shRNA sequence was chosen based on the previous publication by Jaworrski et al (43). Sequence ‘mTOR3071’ was chosen based on complete sequence identity between rat and mouse genes. Scrambled sequence (SCR) was designed using the online scramble design tool by genscript on the World Wide Web at genscript.com/ssl-bin/app/scramble. […]
# Cells were lysed using 0.7 mL of QIAzol™ reagent (Qiagen, Valencia Calif.), followed by 15 min centrifugation at 12,000 g at 4° C. […] Quantitative real-time PCR measuring mouse-specific mTOR and Beta-actin (ACTB) genes using Taqman™ real time PCR was performed using the ABI ViiA 7 Real-Time PCR System™. Raw cycle threshold (Ct) numbers of amplified mTOR gene products were normalized to the housekeeping gene ACTB to control for cDNA input amounts. mRNA relative copy number was determined using the comparative Ct method.
# [9] = Brain distribution of IV infra-red tagged TIMP3 post-TBI; assay type: in vivo, mouse; conditions: coronal section through impact site, n=2
# Source text: FIGS. 2A-2B are graphical representations depicting various data relating to intravenous TIMP3 which preserves vulnerable neuronal populations in the hippocampus. (A) Coronal section through the impact site showing target coverage following IV administration of an infra-red tagged TIMP3. Spectrum bar indicates the intensity of the distribution. […] (B) NeuN staining of post-mitotic mature neurons 7 days post-TBI. Representative photomi-crographs of ipsilateral hippocampi from the 3 groups show NeuN staining in the granule cell layer (GCL) and Hilus (HL) of the dentate gyrus. Highlighted area panels show enhanced view of NeuN+ve hilar interneurons. Scale bar=100 μm. Lower panel, quantification of NeuN+ve neurons in the HL. n=4, 4 section per animal, mean±s.e.m. […] (C) DCX staining of neural progenitors/immature neurons 7 days post-TBI. Representative photomi-crographs of ipsilateral hippocampi from the 3 groups showing DCX staining in the subgranule zone (SGZ) of the dentate gyrus. Highlighted area panels show enhanced view of DCX positive immature neurons. […] Lower panel, quantification of DCX+ve neurons, n=4, 4 sections per animal, mean±s.e.m.
# Subsequently, the inventors sought to determine the effects IV TIMP3 post-TBI on hippocampal neuronal populations. […] To further examine the effects of TIMP3 on neuronal cells the presence of neural progenitors was quantified by DCX staining. […]
molecule,measurement,setting,value
"CO[C@H]1C[C@@H]2CC[C@@H](C)[C@@](O)(O2)C(=O)C(=O)N2CCCC[C@H]2C(=O)O[C@H]([C@H](C)C[C@@H]2CC[C@@H](O)[C@H](OC)C2)CC(=O)[C@H](C)/C=C(\C)[C@@H](O)[C@@H](OC)C(=O)[C@H](C)C[C@H](C)/C=C/C=C/C=C/1C [rapamycin, Rapamycin, reference compound]","Akt (Ser473) phosphorylation with rapamycin, western blot",[1]; rapamycin pre-treatment with TIMP3,not inhibited
Recombinant TIMP3 (tissue inhibitor of matrix metalloproteinase-3) (from UniProt P35625 24-211),Sensolyte FRET assay of MMP-2 enzyme activity; TIMP3 concentration that gives full inhibition,[2],1 µg/mL
same,Sensolyte FRET assay of MMP-9 enzyme activity; TIMP3 concentration that gives full inhibition,[3],1 µg/mL
"CNC(=O)[C@H](Cc1c[nH]c2ccccc12)NC(=O)[C@@H](CC(=O)NO)CC(C)C [GM6001, reference compound]","phosphorylation of Akt (Ser473), western blot","[1]; 10 μM GM6001, 15 minutes",did not result in increased phosphorylation
same,"phosphorylation of S6RP (S235/236), western blot",[4],did not result in increased phosphorylation
same,MMP-2 inhibition (Sensolyte FRET assay),[5],complete MMP inhibition
same,MMP-9 inhibition (Sensolyte FRET assay),[6],complete MMP inhibition
B1,effect on TIMP3-promoted neurite outgrowth (Sholl analysis),[7],significantly inhibited the effects of TIMP3 on neurite outgrowth
same,reduction of mTOR message levels compared to SCR,[8],approximately 50%
B2,penetrance into the ipsilateral hippocampus after IV administration,[9],penentrance of TIMP3 into the ipsilateral hippocampus
